Structures are written as SMILES. Structures can show the parent of a compound that is named as a salt.

On to `O=S1(=O)c2ccccc2N(Cc2cnc[nH]2)CCN1Cc1cccc2ccccc12` (as salt: hydrochloride) [Example 1, 2,3,4,5-Tetrahydro-5-(1H-imidazol-4-ylmethyl)-2-(1-naphthalenylmethyl)-1,2,5-benzothiadiazepine, 1,1-dioxide, monohydrochloride], for which the melting point is 128 °C.
Under `O=S1(=O)c2ccccc2N(Cc2cnc[nH]2)CCN1CCc1ccccc1` (as salt: hydrochloride) [Example 2, 2,3,4,5-Tetrahydro-5-(1H-imidazol-4-ylmethyl)-2-(2-phenylethyl)-1,2,5-benzothiadiazepine, 1,1-dioxide, monohydrochloride] stands 95 °C; under `O=S1(=O)NC(Cc2ccccc2)CN(Cc2cnc[nH]2)c2ccc(Br)cc21` (stereo not shown) (as salt: hydrochloride) [Example 9, N-[2,3,4,5-Tetrahydro-8-bromo-5-(1H-imidazol-4-ylmethyl)-3-(phenylmethyl)-1,2,5-benzothiadiazepine, 1,1-dioxide, monohydrochloride], 180 °C; under `CN1C(Cc2ccccc2)CN(Cc2cnc[nH]2)c2ccc(Br)cc2S1(=O)=O` (stereo not shown) (as salt: hydrochloride) [Example 10, 2,3,4,5-Tetrahydro-8-bromo-2-methyl-5-(1H-imidazol-4-ylmethyl)-3-(phenylmethyl)-1,2,5-benzothiadiazepine, 1,1-dioxide, monohydrochloride], 140 °C.

Source of the values: patent US6624157B2, “Thiadioxobenzodiazepine inhibitors of farnesyl protein transferase” (Bristol-Myers Squibb Company, priority 1996, dated 2003).
